This is an account of results in ChEMBL document CHEMBL1125975, “Enzymic and nonenzymic lipid peroxidation: inhibition by substituted phenoxazines” (Bioorg Med Chem Lett, 1991).

≈ marks a conversion by molar mass, not a printed value.

The species named for this assay is Oryctolagus cuniculus. Description: Minimum concentration of compound was evaluated for inhibiting iron-dependent lipid peroxidation of rabbit brain homogenate in vitro. The class given is functional.
Compound `COc1ccc2c(c1C(=O)O)Nc1ccccc1O2` came in with an MIC of 9.1 µM (≈ 2.34 µg/mL).

As for `CN(O)C(=O)/C=C/c1ccc2c(c1)Nc1ccccc1O2`, the MIC was determined as 0.35 µM (≈ 0.0988 µg/mL). Take `CN(O)C(=O)c1ccc2c(c1)Nc1ccccc1O2`: the minimum inhibitory concentration (MIC) was determined as 0.65 µM (≈ 0.167 µg/mL). In turn, `O=C(NO)c1ccc2c(c1)Nc1ccccc1O2` registered an MIC of 0.41 µM (≈ 0.0993 µg/mL). Take `COc1ccc2c(c1C(=O)NO)Nc1ccccc1O2`: the MIC was 3.7 µM (≈ 1.01 µg/mL). The compound `COC(=O)c1ccc2c(c1)Nc1ccccc1O2` came in with an MIC of 0.22 µM (≈ 0.0531 µg/mL). The compound `O=C(O)c1ccc2c(c1)Nc1ccccc1O2` gave an MIC of 0.44 µM (≈ 0.1 µg/mL). `O=C(O)/C=C/c1ccc2c(c1)Nc1ccccc1O2` yielded an MIC of 0.12 µM (≈ 0.0304 µg/mL).

For `CCOC(=O)/C=C/c1ccc2c(c1)Nc1ccccc1O2`, the lowest concentration to inhibit growth (MIC) was 0.19 µM (≈ 0.0534 µg/mL). The compound `COC(=O)c1cccc2c1Nc1ccccc1O2` yielded an MIC of 4.2 µM (≈ 1.01 µg/mL). Take `O=C(O)c1cccc2c1Nc1ccccc1O2`: the MIC was 4.4 µM (≈ 1 µg/mL). Turning to `c1ccc2c(c1)Nc1ccccc1O2` [PHENOXAZINE], 0.055 µM (≈ 0.0101 µg/mL) was the least that counted as inhibitory (MIC).
